Assay results as given in patent US7647217B2, “Structure of the farnesoid X receptor ligand binding domain and methods of use therefor” (The Salk Institute for Biological Studies, priority 2002, dated 2010).

System: IBABP mRNA in HT29-FXRFL cells
Test: Northern blot of IBABP mRNA induction in HT29 stable cell lines
Type: cell-based, human
Procedure: 20 μg total RNA was isolated using Trizol (Invitrogen) and used for Northern blot analysis. cDNA probe for human IBABP was prepared and hybridized to the blot. Blots were normalized by β-actin expression.
HepG2 or HT29-derived cell lines were typically cultured in medium containing superstripped FBS for 24 hr before the addition of a ligand or DMSO (vehicle) for an additional 24-48 hr. Total RNA was isolated using TRIzol reagent and was resolved (10 μg/lane) on a 1% agarose, 2.2 M formaldehyde gel, transferred to a nylon membrane (Hybond N^+; Amersham Biosciences, Inc.), and cross-linked to the membrane with UV light.
cDNA probes were radiolabeled with [α-^32P]dCTP using the highprime labeling kit (Amersham Biosciences, Inc.). Membranes were hybridized using the QuikHyb hybridization solution (Stratagene, La Jolla, Calif.) according to the manufacturer's protocol. Blots were normalized for variations of RNA loading by hybridization to a control probe, either, 18 S ribosomal cDNA, or the ribosomal protein 36B4. The RNA levels were quantitated using a PhosphorImager (ImageQuant software; Molecular Dynamics, Inc., Sunnyvale, Calif.) in addition to being exposed to X-ray film.
Human colon cells HT29 (FXR null until differentiated) were infected with retroviral vectors that expressed either FXR constructs and the puromycin-resistant gene or the puromycin-resistant gene alone. Puromycin resistant cells were isolated and pooled cell populations were propagated that harbored either the vector alone (HT29-BABE), overexpressed FXR full length (HT29-FXRFL), a non-functional FXR truncated at the AF2 region (HT29-FXR-AF2), or a constitutively active FXR that has the VP16 activation domain fused N-terminal of the protein (HT29-VP16-FXR). Confirmation of the successful establishment of the different stable cell lines was established via northern blot analysis of FXR message levels in the cells (see FIG. 4A). […]
The ability of the novel compounds identified herein to induce IBABP gene expression in this cell system was also examined. Total RNA from HT29 stable cells treated overnight with fexaramine, fexarine and fexarene was probed for IBABP gene expression (see FIG. 4D).

[1] = HT29-FXRFL, overnight treatment

C[C@H](CCC(=O)O)[C@H]1CC[C@H]2[C@@H]3[C@H](O)C[C@@H]4C[C@H](O)CC[C@]4(C)[C@H]3CC[C@]12C [CDCA, chenodeoxycholic acid, reference compound]
induction of IBABP mRNA in control lines (HT29-BABE or HT29-FXR-AF2 cell lines): No induction | concentration of maximal activation of the IBABP gene [1]: 100 µM | induction of IBABP mRNA [1]: robust concentration dependent induction
